Results as given in patent US9169241B2, “Quinolinyloxyphenylsulfonamides” (Max-Planck-Gesellschaft Zur Forderung der Wissenschaften …, priority 2009, dated 2015).

Experiments:
Hs578T [1] = experiment: Matrigel outgrowth assay/branching assay; format: cell-based; settings: Homo sapiens, Hs-578T; HS578T cell line; Table Ib; read-out: Total branching inhibition in Matrigel HS578T
Method in brief: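 Matrigel 3 mg/ml, polymerized 1 h 37° C; 5000 cells/well + cmpd 3.125/1.56/0.78 μM or DMSO. Imaged 48/72/96 h, 5× objective. Positive = total branching block.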

Hs578T [2] = experiment: Wound healing migration assay; format: cell-based; settings: Homo sapiens, Hs-578T; HS578T cell line; Table Ib
Method in brief: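 Compound exposure at 12.5, 6.25 and 3.125 μM, with DMSO control, on scratch-wounded monolayers (150000 cells/24 well, overnight). Wound closure imaged by microscopy, fixed with crystal violet after 48 h or 72 h depending on cell line; IC50 is the concentration giving 50% wound size between t0 and t48/t72.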

Hs578T [3] = experiment: Cell vitality assay (ATP assay, CellTiter-Glo); format: cell-based; settings: Homo sapiens, Hs-578T; HS578T cell line, 72 h; Table Ib; read-out: IC50 ATP-Assay HS578T after 72 h
Method in brief: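 IC50s reflect 50% loss of ATP-dependent luminescence versus DMSO control after a 72 h treatment of 1000 cells per well across 0.195–12.5 μM compound.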

[4] = target: T1, wild type AXL (wtAXL) receptor tyrosine kinase (Homo sapiens, UniProt P30530); experiment: NIH-3T3-AXL cellular kinase assay (pY-AXL-ELISA); format: cell-based; settings: NIH-3T3-AXL (clone 22) cells, serum depleted, compounds 1 h; Table Ia
T1 construct: WtAXL cDNA was cloned into vector pLXSN(ESK) and transfected into Phoenix E packaging cells; expressed in transfected cells; host or cells: NIH3T3 N7 (mouse fibroblasts), retrovirally infected, clone 22
T1 sequence (P30530 26-894): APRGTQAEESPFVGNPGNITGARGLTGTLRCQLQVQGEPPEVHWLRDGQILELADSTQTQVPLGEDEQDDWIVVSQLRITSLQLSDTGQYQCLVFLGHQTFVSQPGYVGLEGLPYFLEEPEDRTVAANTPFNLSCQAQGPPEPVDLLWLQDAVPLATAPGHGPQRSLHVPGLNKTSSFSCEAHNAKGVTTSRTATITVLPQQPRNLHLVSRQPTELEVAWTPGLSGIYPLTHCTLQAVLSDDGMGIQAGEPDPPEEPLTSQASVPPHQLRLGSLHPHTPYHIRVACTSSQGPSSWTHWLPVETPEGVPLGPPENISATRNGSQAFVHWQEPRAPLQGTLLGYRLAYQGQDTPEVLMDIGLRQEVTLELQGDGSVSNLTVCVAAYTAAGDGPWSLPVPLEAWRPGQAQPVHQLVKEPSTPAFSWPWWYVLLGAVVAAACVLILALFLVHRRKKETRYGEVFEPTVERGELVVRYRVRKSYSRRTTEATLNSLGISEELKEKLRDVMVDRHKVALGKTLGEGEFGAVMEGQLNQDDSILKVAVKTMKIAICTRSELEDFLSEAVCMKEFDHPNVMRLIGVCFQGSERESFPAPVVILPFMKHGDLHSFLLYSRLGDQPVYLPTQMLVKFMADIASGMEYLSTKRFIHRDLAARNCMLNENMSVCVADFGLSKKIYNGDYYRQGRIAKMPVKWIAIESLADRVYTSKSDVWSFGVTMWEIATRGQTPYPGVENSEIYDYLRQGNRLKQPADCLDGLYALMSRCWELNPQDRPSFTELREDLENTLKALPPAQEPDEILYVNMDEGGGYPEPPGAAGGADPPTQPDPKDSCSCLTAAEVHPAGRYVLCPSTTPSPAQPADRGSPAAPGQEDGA
Description: WtAXL cDNA was cloned into vector pLXSN(ESK) and transfected into Phoenix E packaging cells. The viral supernatant was collected and used to infect target cells NIH3T3 N7. Monoclonal NIH3T3-AXL cell lines stably expressing wtAXL were generated by selecting retrovirally infected cells in medium containing puromycin (2 μg/ml) and subsequent clonal separation.
Serial dilutions of compounds were added, and the cells were further incubated for 1 h. Cells were washed with PBS and lysed on ice in 500 μl lysis buffer (50 mM HEPES (pH 7.5), 150 mM NaCl, 1 mM EGTA, 10% Glycerol, 1% Triton X-100, 100 mM NaF, 10 mM Na4P2O7.10H2O, 1 mM Na3VO4, 1 mM phenylmethylsulfonyl fluoride, and […]) for 15 min. The cell lysate were used for phosphotyrosine AXL enzyme-linked immunosorbant assay (pY-AXL-ELISA). […] Subsequently 96-well plates were blocked with PBS-0.05% Tween®20+10% FBS for 4 h at 37° C. Plates were washed 5 times with PBS-0.05% Tween®20 and 95 μl of lysate was transferred per well for incubation overnight at 4° C. Plates were washed 5 times with PBS-0.05% Tween®20 (Sigma, Steinheim, Germany). For detection of phosphorylated tyrosine we used homemade biotynilated 4G10-antibody (0.5 μg/ml) in PBS-0.05% Tween®20+10% FBS (100 μl/well) and incubated the 96-well plate for 2 h at room temperature. The anti-phosphotyrosine mouse monoclonal antibody 4G10 was biotynilated with Sulfo-NHS®-Biotin according to the suppliers protocol (Pierce, Rockford, Ill., USA) and purified by Mirco Bio-Spin 6 Chromatograpy Columns (BIO RAD Laboratories, Inc., Hercules, Calif., USA) using PBS as diluent. Plates were washed 5 times with PBS-0.05% Tween®20. For biding to biotin Alkaline Phosphatase Conjugated Strepavidin SA110 (Millipore, Billerica, Mass., USA) (1:4000) was used in PBS-0.05% Tween20+10% FBS (100 μl/well) and incubated for 30 min at room temperature. Plates were washed 5 times with PBS-0.05% Tween20. For fluorimetric detection of alkaline phosphatase AttoPhos Substrate Set (Roche diagnostics GmbH, Mannheim, Germany) was used (100 μl/well). The fluorimetric signal was quantified after 90 min at 430/560 nm wavelength using a TECAN Ultra Evolution plate reader (Tecan Deutschland GmbH, Crailsheim, Germany).

Row | melting point [°C] | IC50 (Hs578T [2]) [µM] | IC50 [4] [µM] | SMILES | IC50 (Hs578T [1]) [µM] | IC50 (Hs578T [3]) [µM]
1 | 120 to 122 | ≤ 12.5 | < 0.5 | COc1cc2c(Oc3ccc(NS(=O)(=O)c4ccc(F)c(F)c4)cc3F)ccnc2cc1OCCCN1CCCC(C)C1 (centres unmarked) [Example 48, 3,4-Difluoro-N-(3-fluoro-4-{6-methoxy-7-[3-(3-methyl-piperidin-1-yl)-propoxy]-quinolin-4-yloxy}-phenyl)-benzenesulfonamide] | 10 to 25 | ≤ 12.5
2 | 126 to 128 | ≤ 12.5 | < 0.5 | COc1cc2c(Oc3ccc(NS(=O)(=O)c4cc(Cl)cc(Cl)c4)cc3F)ccnc2cc1OCCCN1CCCC(C)C1 (centres unmarked) [Example 53, 3,5-Dichloro-N-(3-fluoro-4-{6-methoxy-7-[3-(3-methyl-piperidin-1-yl)-propoxy]-quinolin-4-yloxy}-phenyl)-benzenesulfonamide] | 10 to 25 | ≤ 12.5
3 | 99 to 101 | 12.5 to 50 | < 0.5 | COc1cc2c(Oc3ccc(NS(=O)(=O)c4ccc(C)s4)cc3F)ccnc2cc1OCCCN1CCCC(C)C1 (centres unmarked) [Example 62, 5-Methyl-thiophene-2-sulfonic acid (3-fluoro-4-{6-methoxy-7-[3-(3-methyl-piperidin-1-yl)-propoxy]-quinolin-4-yloxy}-phenyl)-amide] | 10 to 25 | ≤ 12.5
4 | 119 to 121 | ≤ 12.5 | < 0.5 | COc1cc2c(Oc3ccc(NS(=O)(=O)c4c(Cl)csc4Cl)cc3F)ccnc2cc1OCCCN1CCCC(C)C1 (centres unmarked) [Example 64, 2,4-Dichloro-thiophene-3-sulfonic acid (3-fluoro-4-{6-methoxy-7-[3-(3-methyl-piperidin-1-yl)-propoxy]-quinolin-4-yloxy}-phenyl)-amide] | 10 to 25 | ≤ 12.5
5 | 189 to 191 | 12.5 to 50 | < 0.5 | COc1cc2c(Oc3ccc(NS(=O)(=O)c4cc(Cl)cc(Cl)c4OC)cc3F)ccnc2cc1OCCCN1CCOCC1 [Example 76, 3,5-Dichloro-N-{3-fluoro-4-[6-methoxy-7-(3-morpholin-4-yl-propoxy)-quinolin-4-yloxy]-phenyl}-2-methoxy-benzenesulfonamide] | 10 to 25 | ≤ 12.5
6 | 194 to 196 | 12.5 to 50 | < 0.5 | COc1cc2c(Oc3ccc(NS(=O)(=O)c4cc(Cl)ccc4Cl)cc3F)ccnc2cc1OCCN1CCOCC1 [Example 106, 2,5-Dichloro-N-{3-fluoro-4-[6-methoxy-7-(2-morpholin-4-yl-ethoxy)-quinolin-4-yloxy]-phenyl}-benzenesulfonamide] | 10 to 25 | ≤ 12.5
7 | 180 to 181 | 12.5 to 50 | < 0.5 | COc1cc2c(Oc3ccc(NS(=O)(=O)c4ccccc4Cl)cc3F)ccnc2cc1OCCN1CCOCC1 [Example 108, 2-Chloro-N-{3-fluoro-4-[6-methoxy-7-(2-morpholin-4-yl-ethoxy)-quinolin-4-yloxy]-phenyl}-benzenesulfonamide] | 10 to 25 | ≤ 12.5

The next lines start with the compound.

Row | SMILES | melting point [°C] | IC50 (Hs578T [2]) [µM] | IC50 [4] [µM] | IC50 (Hs578T [1]) [µM] | IC50 (Hs578T [3]) [µM]
8 | COc1cc2c(Oc3ccc(NS(=O)(=O)c4cc(Cl)ccc4Cl)cc3F)ccnc2cc1OCCCN1CCCC(C)C1 (centres unmarked) [Example 50, 2,5-Dichloro-N-(3-fluoro-4-{6-methoxy-7-[3-(3-methyl-piperidin1-yl)-propoxy]-quinolin-4-yloxy}-phenyl)-benzenesulfonamide] | 127 to 129 | ≤ 12.5 | < 0.5 | ≤ 10 | ≤ 12.5
9 | COc1cc2c(Oc3ccc(NS(=O)(=O)c4ccc(Cl)c(Cl)c4)cc3F)ccnc2cc1OCCCN1CCCC(C)C1 (centres unmarked) [Example 52, 3,4-Dichloro-N-(3-fluoro-4-{6-methoxy-7-[3-(3-methyl-piperidin-1-yl)-propoxy]-quinolin-4-yloxy}-phenyl)-benzenesulfonamide] | 123 to 124 | ≤ 12.5 | < 0.5 | ≤ 10 | ≤ 12.5
10 | COc1cc2c(Oc3ccc(NS(=O)(=O)c4ccsc4)cc3F)ccnc2cc1OCCCN1CCCC(C)C1 (centres unmarked) [Example 65, Thiophene-3-sulfonic acid (3-fluoro-4-{6-methoxy-7-[3-(3-methyl-piperidin-1-yl)-propoxy]-quinolin-4-yloxy}-phenyl)-amide] | 174 to 176 | ≤ 12.5 | < 0.5 | 10 to 25 | ≤ 12.5
11 | COc1cc2c(Oc3ccc(NS(=O)(=O)c4csc5ccccc45)cc3F)ccnc2cc1OCCCN1CCCC(C)C1 (centres unmarked) [Example 67, Benzo[b]thiophene-3-sulfonic acid (3-fluoro-4-{6-methoxy-7-[3-(3-methyl-piperidin-1-yl)-propoxy]-quinolin-4-yloxy}-phenyl)-amide] | 126 to 128 | ≤ 12.5 | < 0.5 | ≤ 10 | ≤ 12.5
12 | COc1cc2c(Oc3ccc(NS(=O)(=O)c4ccccc4C(F)(F)F)cc3C)ccnc2cc1OCCCN1CCC(C)CC1 [Example 89, N-(4-{6-Methoxy-7-[3-(4-methyl-piperidin-1-yl)-propoxy]-quinolin-4-yloxy}-3-methyl-phenyl)-2-trifluoromethyl-benzenesulfonamide] | 165 to 167 | ≤ 12.5 | < 0.5 | ≤ 10 | ≤ 12.5
13 | COc1cc2c(Oc3ccc(NS(=O)(=O)c4ccccc4[N+](=O)[O-])cc3F)ccnc2cc1OCCN1CCOCC1 [Example 109, N-{3-Fluoro-4-[6-methoxy-7-(2-morpholin-4-yl-ethoxy)-quinolin-4-yloxy]-phenyl}-2-nitro-benzenesulfonamide] | 129 to 131 | 12.5 to 50 | < 0.5 | 10 to 25 | ≤ 12.5
